Assays:
[1] = target: T1, TRKB-ECD-His (extracellular domain of TRKB) (Homo sapiens, UniProt Q16620); assay: Tryptophan fluorescence quenching assay; settings: TRKB-ECD-His 50 nM in PBS; excitation 295 nm, emission 330 nm; compounds 0–1000 nM; read-out: TRKB-ECD binding affinity (KD)
T1 construct: extracellular domain of TRKB (TRKB-ECD) (residues 32–429, XP_016870240); Saccharomyces cerevisiae α-factor secretion signal (N, cleaved yes); made in house; host or cells: Pichia pastoris
Description: The cDNA fragment containing the full-length extracellular domain of TRKB (TRKB-ECD) (residues 32–429, XP_016870240) was amplified from pDONR223-NTRK2 plasmid (Addgene, Watertown, MA, USA) using forward primer 5′-ctcgagaaaagagaggctgaagctTGTCCCACGTCCTGAAATG (XhoI site and Kex2 cleavage of the signal sequence in lowercase letters) and reverse primer 5′-gtcgac[…] (SalI site in lowercase letters). After cloning and sequencing, the TRKB-ECD fragment was excised with XhoI and SalI and subcloned into Pichia expression vector pGAPZα A (Invitrogen). The AvrII-linearized plasmid was then transformed into Pichia pastoris, and stable transformants selected and cultured at 30 °C for 4 days for constitutive expression of recombinant His-tagged TRKB-ECD. The secreted TRKB-ECD-His in cultured medium was purified using Ni-NTA His•Bind resins (Novagen, Madison, WI 53719, USA) according to the supplier’s instructions. Protein purity was examined by Coomassie blue staining of SDS-polyacrylamide gel as well as immunoblotting using anti-His (1:2000; Acris, Herford, Germany) and anti-TRKB (1:1000; Cell Signaling) antibodies.
The interaction between TRKB-ECD-His and LM-031, LMDS-1 or LMDS-2 was determined by tryptophan fluorescence titration. 7,8-DHF (Sigma-Aldrich) was included as a positive control. Tryptophan fluorescence spectra of TRKB-ECD-His (50 nM in PBS) were obtained before and after titration with different concentrations of test compounds (0–1000 nM). The fluorescent quenching was conducted in a cuvette with a 1 cm path length cell by an F-7000 fluorescence spectrophotometer (Hitachi, Tokyo, Japan) at room temperature. The intrinsic fluorescence spectra of TRKB were recorded with excitation wavelength set at 295 nm and emission wavelength in the range 300–400 nm. The dissociation constant (KD) of 7,8-DHF, LM-031, LMDS-1 and LMDS-2 to TRKB was determined by fitting the normalized fluorescence intensity at 330 nm under different concentrations of test compounds using the equation derived from Liu et al.:KD = [P]T (f − 1) + [D]T (1/f − 1), where f is the fractional change, and [P]Tand [D]Tare the total concentration of TRKB-ECD-His protein and test compound, respectively.

[2] = tested on: ΔK280 tauRD-DsRed SH-SY5Y folding reporter cells; assay: High-content analysis of ΔK280 tauRD-DsRed fluorescence and cell number (folding reporter); format: cell-based, human; settings: BDNF at 100 ng/mL, LMDS-1/2 at 10 μM; untreated = 100%; Figure 6A
Protocol: On day 1, ∆K280 tauRD-DsRed SH-SY5Y cells were seeded in a 96-well plate (3 × 10^4/well), with retinoic acid (10 µM; Sigma-Aldrich) added to induce neuronal differentiation. […] […] For ROS measurement, dichloro-dihydro-fluorescein diacetate (DCFH-DA, 10 µM; Invitrogen, Carlsbad, CA, USA) was added to the cells on day 8 and incubated at 37 °C for 30 min.

[3] = tested on: p-TRKB (Y516 and Y817); assay: Immunoblot of p-TRKB (Y516 and Y817); format: cell-based, human; settings: for p-TRKB Y516 level / p-TRKB Y817 level: 10 µM; for p-TRKB Y516 level: induced untreated 67%; for p-TRKB Y817 level: induced untreated 74%; for p-TRKB (Y516/Y817) level: BDNF 100 ng/mL, LMDS-1/2 10 μM, induced untreated 77–83%, Figure 6B
Protocol: (§1) ∆K280 tauRD-DsRed SH-SY5Y cells in 6-well plates (5 × 10^5/well) were treated with retinoic acid (10 µM) on day 1, followed by LMDS-1 or -2 (10 µM) and doxycycline (2 µg/mL) addition on day 2 as described. ERK inhibitor U0126 or PI3K inhibitor wortmannin (10 μM) (LC Laboratories, Woburn, MA, USA) was added on day 6. On day 8, the cells were collected for BDNF, BCL2, BAX and total/phosphorylated TRKB, ERK, AKT, CREB protein analyses as described.
∆K280 tauRD-DsRed SH-SY5Y cells were lysed in buffer containing 50 mM Tris-HCl (pH 8.0), 150 mM NaCl, 1 mM EDTA (pH 8.0), 1 mM EGTA (pH 8.0), 0.1% SDS, 0.5% sodium deoxycholate, 1% Triton X-100 and protease (Sigma-Aldrich)/phosphatase (Roche, Basel, Switzerland) inhibitor cocktails. After two sonications with an interval of 30 min on ice, cell lysates were collected by centrifugation at 14,000× g for 30 min at 4 °C. Protein concentrations were determined using a Bradford assay (Bio-Rad, Hercules, CA, USA). Protein samples (25 µg) were separated by 10–12% SDS-PAGE and transferred to polyvinylidene difluoride (PVDF) membranes (Sigma-Aldrich). After blocking for 2 h with 10% skimmed milk or 5% BSA in 0.1% Tween 20 in Tris-buffered saline (TBST), the membrane was incubated with primary antibody against BDNF (1:500; Santa Cruz, Santa Cruz, CA, USA), BCL2 (1:500; BioVision), BAX (1:500; BioVision), TRKB (1:1000; Cell Signaling, Danvers, MA, USA), p-TRKB (Y516) (1:1000; Cell Signaling), p-TRKB (Y817) (1:1000; Millipore, Billerica, MA, USA), ERK (1:1000; Cell Signaling), p-ERK (T202/Y204) (1:500; Cell Signaling), AKT (1:1000; Cell Signaling), p-AKT (S473) (1:1000; Cell Signaling), CREB (1:1000; Santa Cruz), p-CREB (S133) (1:1000; Millipore), JNK (1:1000; Cell Signaling), p-JNK (T183/Y185) (1:1000; Cell Signaling) or loading control glyceraldehyde-3-phosphate dehydrogenase (GAPDH) (1:1000; MDBio, Taipei, Taiwan). After three washes with TBST, the immune complexes were detected using horseradish peroxidase-conjugated goat anti-mouse or goat anti-rabbit secondary IgG antibody (1:5000, GeneTex, Irvine, CA, USA) and enhanced chemiluminescence substrates luminol and peroxide (Millipore). The primary and secondary antibodies used were diluted with TBST. The chemiluminescent detection was performed on ImageQuant™ LAS 4000mini (GE Healthcare).

[4] = tested on: CREB; assay: Immunoblot of CREB; format: cell-based, human; settings: 10 µM; induced untreated 83%
Protocol: as §1
(§2) ∆K280 tauRD-DsRed SH-SY5Y cells were lysed in buffer containing 50 mM Tris-HCl (pH 8.0), 150 mM NaCl, 1 mM EDTA (pH 8.0), 1 mM EGTA (pH 8.0), 0.1% SDS, 0.5% sodium deoxycholate, 1% Triton X-100 and protease (Sigma-Aldrich)/phosphatase (Roche, Basel, Switzerland) inhibitor cocktails. After two sonications with an interval of 30 min on ice, cell lysates were collected by centrifugation at 14,000× g for 30 min at 4 °C. Protein concentrations were determined using a Bradford assay (Bio-Rad, Hercules, CA, USA). Protein samples (25 µg) were separated by 10–12% SDS-PAGE and transferred to polyvinylidene difluoride (PVDF) membranes (Sigma-Aldrich). […] After three washes with TBST, the immune complexes were detected using horseradish peroxidase-conjugated goat anti-mouse or goat anti-rabbit secondary IgG antibody (1:5000, GeneTex, Irvine, CA, USA) and enhanced chemiluminescence substrates luminol and peroxide (Millipore). […]

[5] = tested on: pro-BDNF (31 kDa); assay: Immunoblot of pro-BDNF; format: cell-based, human; settings: 10 µM; induced untreated 62%
Protocol: as §1, §2

[6] = tested on: BCL2; assay: Immunoblot of BCL2; format: cell-based, human; settings: 10 µM; induced untreated 73%
Protocol: as §1, §2

[7] = tested on: p-JNK (T183/Y185); assay: Immunoblot of p-JNK (T183/Y185); format: cell-based, human; settings: 10 µM; versus 107% untreated; p > 0.05
Protocol: as §2

T1 sequence (Q16620 32-429): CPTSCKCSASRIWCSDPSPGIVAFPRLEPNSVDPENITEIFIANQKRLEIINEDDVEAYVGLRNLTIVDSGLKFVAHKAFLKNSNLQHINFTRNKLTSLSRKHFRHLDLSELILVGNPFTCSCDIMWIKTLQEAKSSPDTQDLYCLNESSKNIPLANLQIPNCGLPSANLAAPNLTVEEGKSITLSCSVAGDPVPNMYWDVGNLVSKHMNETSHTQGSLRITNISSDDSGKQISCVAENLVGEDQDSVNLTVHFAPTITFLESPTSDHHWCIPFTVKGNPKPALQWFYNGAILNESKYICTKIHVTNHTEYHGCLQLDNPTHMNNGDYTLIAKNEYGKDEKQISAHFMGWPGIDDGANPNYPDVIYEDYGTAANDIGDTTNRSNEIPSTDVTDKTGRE

Kd [1] [nM]	Structure (SMILES)	DsRed fluorescence intensity [2]	p-TRKB Y516 level [3]	p-TRKB Y817 level [3]	p-TRKB (Y516/Y817) level [3]	CREB level [4]	pro-BDNF level [5]	BCL2 level [6]	p-JNK (T183/Y185) expression [7]
12.7 ± 2.8	O=C(c1ccccc1)c1cc2c(O)cccc2oc1=O [LM-031, 3-benzoyl-5-hydroxychromen-2-one]								
6.5 ± 6.6	O=C(c1ccccc1)c1cc2ccc(O)cc2oc1=O [LMDS-2]	111–112%	92–93%	103–105%	96–104%	98–101%	94–99%	111–114%	93–108%
8 ± 17	CCOc1ccc2cc(C(=O)c3ccccc3)c(=O)oc2c1 [LMDS-1]	111–112%	92–93%	103–105%	96–104%	98–101%	94–99%	111–114%	93–108%
